Consider 24 molecules from patent publication US20080125424A1, “Derivatives of urea and related diamines, methods for their manufacture, and uses therefor” (priority 2006, published 2008).

A value given as a limit tells only on which side of the number the result lay.

This test deals with T1, human parathyroid cell Ca2+ receptor (hPCaR) (Homo sapiens, UniProt P41180).
T1 construct: expressed in transfected cells
T1 sequence (P41180 20-1078): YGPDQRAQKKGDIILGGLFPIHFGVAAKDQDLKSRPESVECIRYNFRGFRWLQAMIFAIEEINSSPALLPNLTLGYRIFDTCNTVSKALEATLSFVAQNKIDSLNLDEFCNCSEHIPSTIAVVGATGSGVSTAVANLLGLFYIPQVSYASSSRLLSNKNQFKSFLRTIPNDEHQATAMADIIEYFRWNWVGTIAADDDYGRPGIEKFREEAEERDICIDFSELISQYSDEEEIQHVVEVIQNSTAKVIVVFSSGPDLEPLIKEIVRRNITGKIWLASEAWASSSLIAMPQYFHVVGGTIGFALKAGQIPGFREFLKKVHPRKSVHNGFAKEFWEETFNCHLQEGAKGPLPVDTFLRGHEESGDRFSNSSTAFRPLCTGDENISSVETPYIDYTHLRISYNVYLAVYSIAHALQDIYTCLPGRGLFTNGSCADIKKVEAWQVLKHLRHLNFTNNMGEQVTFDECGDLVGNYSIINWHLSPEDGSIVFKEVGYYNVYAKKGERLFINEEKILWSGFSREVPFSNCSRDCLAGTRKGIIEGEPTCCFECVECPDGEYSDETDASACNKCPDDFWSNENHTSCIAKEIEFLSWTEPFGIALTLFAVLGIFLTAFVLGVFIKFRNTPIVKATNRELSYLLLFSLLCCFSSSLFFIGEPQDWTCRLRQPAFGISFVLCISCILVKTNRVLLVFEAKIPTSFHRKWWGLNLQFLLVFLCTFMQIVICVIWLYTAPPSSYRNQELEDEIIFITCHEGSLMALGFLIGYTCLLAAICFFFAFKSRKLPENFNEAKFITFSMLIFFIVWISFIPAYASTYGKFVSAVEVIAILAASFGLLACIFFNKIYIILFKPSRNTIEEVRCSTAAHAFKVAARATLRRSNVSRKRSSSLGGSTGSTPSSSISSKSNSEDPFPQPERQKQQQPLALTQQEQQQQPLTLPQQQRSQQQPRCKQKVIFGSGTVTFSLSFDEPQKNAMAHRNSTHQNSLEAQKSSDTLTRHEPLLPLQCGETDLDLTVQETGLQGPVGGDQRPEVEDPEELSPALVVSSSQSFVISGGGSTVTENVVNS
In words: [Ca2+]i fluorescence assay in HEK 293 4.0-7 cells expressing hPCaR. The conditions noted are these: buffer with 1 mM CaCl2. The test is classed as cell-based. Here is the method:
The activities of the compounds of the present invention on calcium receptors were measured. In one embodiment, the measurement was performed in accordance with the method described in Example 4 of Nemeth et al., PCT/US95/13704 (International Publication No. WO96/12697) herein incorporated by reference.
A 4.0-kb NotI-HindIII fragment of the human parathyroid cell Ca^2+ receptor (hPCaR) cDNA was subcloned into the mammalian expression vector pCEP4 (Invitrogen) containing the hygromycin-resistant gene as a selectable marker. This plasmid was transfected into HEK 293 cells by calcium phosphate precipitation. Transfected cells were grown in Dulbecco's modified Eagle's medium containing 10% fetal bovine serum and hygromycin (200 μg/mL). Hygromycin-resistant colonies were subcloned and assayed for hPCaR mRNA by solution hybridization using a ^32P-labeled RNA probe complementary to the (4.0 kb) hPCaR sequence (Garrett, et al., J. Biol. Chem. 270, 12919-12925 (1995)). Clone 7 was used to assess the effects of compounds on [Ca^2+]i. This stably transfected cell line was termed HEK 293 4.0-7. For measurements of [Ca^2+]i, the cells were recovered from tissue culture flasks by brief treatment with Versene (Invitrogen; Containing 0.2 g/L EDTA.4Na in phosphate-buffered saline) and then seeded in collagen coated 384-well plates (BD Biosciences) at 20K cells per well in the growth media (same as above). Cells were grown in 37c TC incubator overnight. Then, the media was discarded and cells were loaded with 1× dye from Ca^2+ Assay Kit I (BD Biosciences) in parathyroid cell buffer (126 mM NaCl, 4 mM KCl, 1 mM MgSO4, 0.7 mM K2HPO4/KH2PO4, 20 mM HEPES.NaOH (pH 7.45)) containing 0.5% BSA and 1 mM CaCl2. Cells were loaded at room temperature for 90 minutes. Each test compound was added to the cells and the fluorescence was recorded by using excitation and emission wavelengths of 485 and 530 nm, respectively.
As a reminder, the EC50 is the midpoint of the concentration-response curve. Lower therefore signals an effect from little substance. For the molecule `O=C(Nc1nc2ccccc2s1)N(CCNCC1CCN(C(=O)OCc2ccccc2)CC1)CCC(c1ccccc1)c1ccccc1` [Example 149, 4-({2-[3-Benzothiazol-2-yl-1-(3,3-diphenyl-propyl)-ureido]-ethylamino}-methyl)piperidine-1-carboxylic acid benzyl ester], the EC50 is 100 to 1000 nM.

Consider `CS(=O)(=O)Nc1ccc(-c2nc(NC(=O)N(CCCC(=O)O)CCC(c3ccccc3)c3ccccc3)sc2Cl)cc1` [Example 73, 4-(3-(5-chloro-4-(4-(methylsulfonamido)phenyl)thiazol-2-yl)-1-(3,3-diphenylpropyl)ureido)butanoic acid], for which the EC50 is less than 100 nM. Consider `CS(=O)(=O)Nc1ccc(-c2nc(NC(=O)N(CCC(c3ccccc3)c3ccccc3)CCS(N)(=O)=O)sc2Cl)cc1` [Example 136, 2-[{[(5-chloro-4-{4-[(methylsulfonyl)amino]phenyl}-1,3-thiazol-2-yl)amino]carbonyl}(3,3-diphenylpropyl)amino]ethanesulfonamide], for which the EC50 was less than 100 nM.

Consider `O=C(O)CCN(CCC(c1ccccc1)c1ccccc1)C(=O)Nc1nc2ccccc2s1` [Example 114, 3-(3-(benzo[d]thiazol-2-yl)-1-(3,3-diphenylpropyl)ureido)propanoic acid], for which the EC50 lay in the range of 100 to 1000 nM. As for `NS(=O)(=O)c1ccc(-c2csc(NC(=O)N(CCCC(=O)O)CCC(c3ccccc3)c3ccccc3)n2)cc1` [Example 124], the figure is less than 100 nM. With `CS(=O)(=O)Nc1ccc(-c2csc(NC(=O)N(CCNC(=O)C3CCCNC3)CCC(c3ccccc3)c3ccccc3)n2)cc1` (stereo not drawn) [Example 130, 1-(3,3-diphenylpropyl)-3-(4-(4-(methylsulfonamido)phenyl)thiazol-2-yl)-1-(2-(piperidine-3-carboxamido)ethyl)urea], the EC50 is less than 100 nM. Molecule `O=C(O)CN1CCC(NCCN(CCC(c2ccccc2)c2ccccc2)C(=O)Nc2nc3ccccc3s2)CC1` [Example 162, (4-{2-[3-Benzothiazol-2-yl-1-(3,3-diphenyl-propyl)-ureido]-ethylamino}-piperidin-1-yl)acetic acid] gave an EC50 of less than 100 nM.

The molecule `CC(C)(C)OC(=O)N1CCC(NCCN(CCC(c2ccccc2)c2ccccc2)C(=O)Nc2nc3ccccc3s2)CC1` [Example 159, 4-{2-[3-Benzothiazol-2-yl-1-(3,3-diphenyl-propyl)-ureido]-ethylamino}-piperidine-1-carboxylic acid tert-butyl ester] yielded a 50% effective concentration (EC50) of 100 to 1000 nM. As for `C[C@@H]1CN(C(=O)CCN(CCC(c2ccccc2)c2ccccc2)C(=O)Nc2nc3ccccc3s2)CCN1` [Example 125, (R)-3-(benzo[d]thiazol-2-yl)-1-(3,3-diphenylpropyl)-1-(3-(3-methylpiperazin-1-yl)-3-oxopropyl)urea], the figure is 1000 to 5000 nM. As for `C[C@@H]1CNCCN1C(=O)CCN(CCC(c1ccccc1)c1ccccc1)C(=O)Nc1nc2ccccc2s1` [Example 120, (R)-3-(benzo[d]thiazol-2-yl)-1-(3,3-diphenylpropyl)-1-(3-(2-methylpiperazin-1-yl)-3-oxopropyl)urea], the figure is 1000 to 5000 nM; as for `O=C(O)CCCN(CCC(c1ccccc1)c1ccccc1)C(=O)Nc1nc(-c2ccccc2)c(Cl)s1` [Example 83, 4-(3-(5-chloro-4-phenylthiazol-2-yl)-1-(3,3-diphenylpropyl)ureido)butanoic acid], less than 100 nM; as for `O=C(CCCN(CCC(c1ccccc1)c1ccccc1)C(=O)Nc1nc(-c2ccccc2)cs1)N[C@@H]1CCCNC1` [Example 76, (R)-1-(3,3-diphenylpropyl)-1-(4-oxo-4-(piperidin-3-ylamino)butyl)-3-(4-phenylthiazol-2-yl)urea], less than 100 nM. As for `NC(=O)CCN(CCC(c1ccccc1)c1ccccc1)C(=O)Nc1nc2ccccc2s1` [Example 109, 1-(3-amino-3-oxopropyl)-3-(benzo[d]thiazol-2-yl)-1-(3,3-diphenylpropyl)urea], the figure is 100 to 1000 nM; as for `O=C(O)CNCCN(CCC(c1ccccc1)c1ccccc1)C(=O)Nc1nc2ccccc2s1` [Example 161, {2-[3-Benzothiazol-2-yl-1-(3,3-diphenyl-propyl)-ureido]-ethylamino}-acetic acid], 100 to 1000 nM.

On to `CS(=O)(=O)c1ccc(-c2csc(NC(=O)N(CCCC(=O)O)CCC(c3ccccc3)c3ccccc3)n2)cc1` [Example 79, 4-(1-(3,3-diphenylpropyl)-3-(4-(4-(methylsulfonyl)phenyl)thiazol-2-yl)ureido)butanoic acid], for which the EC50 is less than 100 nM. As for `CS(=O)(=O)Nc1ccc(-c2nc(NC(=O)N(CCCO)CCC(c3ccccc3)c3ccccc3)sc2Cl)cc1` [Example 134, 3-(5-chloro-4-(4-(methylsulfonamido)phenyl)thiazol-2-yl)-1-(3,3-diphenylpropyl)-1-(3-hydroxypropyl)urea], the figure is less than 100 nM. `O=C(CCCN(CCC(c1ccccc1)c1ccccc1)C(=O)Nc1nc2ccccc2s1)N[C@@H]1CCCNC1` [Example 71, (R)-3-(benzo[d]thiazol-2-yl)-1-(3,3-diphenylpropyl)-1-(4-oxo-4-(piperidin-3-ylamino)butyl)urea] registered an EC50 of less than 100 nM. Next, `N#Cc1ccc(S(=O)(=O)NCCN(CCC(c2ccccc2)c2ccccc2)C(=O)Nc2nc3ccccc3s2)cc1` [Example 169, N-{2-[3-Benzothiazol-2-yl-1-(3,3-diphenyl-propyl)-ureido]-ethyl}-4-cyanobenzenesulfonamide]: 1000 to 5000 nM. `O=C(O)CCCN(CCC(c1ccccc1)c1ccccc1)C(=O)Nc1nc2ccccc2s1` [Example 104, 4-(3-(benzo[d]thiazol-2-yl)-1-(3,3-diphenylpropyl)ureido)butanoic acid] came in with an EC50 of 100 to 1000 nM.

The molecule `O=C(CCN(CCC(c1ccccc1)c1ccccc1)C(=O)Nc1nc2ccccc2s1)N1CCOCC1` [Example 103, 3-(benzo[d]thiazol-2-yl)-1-(3,3-diphenylpropyl)-1-(3-morpholino-3-oxopropyl)urea] returned a concentration for a half-maximal effect (EC50) of 100 to 1000 nM. As for `O=C(Nc1nc2ccccc2s1)N(CCN[C@@H]1CCCNC1)CCC(c1ccccc1)c1ccccc1` [Example 145, (R)-3-(benzo[d]thiazol-2-yl)-1-(3,3-diphenylpropyl)-1-(2-(piperidin-3-ylamino)ethyl)urea], the figure is less than 100 nM; as for `CC(C)(C)OC(=O)N1CCC(C(=O)NCCN(CCC(c2ccccc2)c2ccccc2)C(=O)Nc2nc3ccccc3s2)CC1` [Example 165, 4-{2-[3-Benzothiazol-2-yl-1-(3,3-diphenyl-propyl)-ureido]-ethylcarbamoyl}-piperidine-1-carboxylic acid tert-butyl ester], 100 to 1000 nM. Next, `C[C@H]1CNCCN1C(=O)CCN(CCC(c1ccccc1)c1ccccc1)C(=O)Nc1nc2ccccc2s1` [Example 123, (S)-3-(benzo[d]thiazol-2-yl)-1-(3,3-diphenylpropyl)-1-(3-(2-methylpiperazin-1-yl)-3-oxopropyl)urea]: 1000 to 5000 nM; `CN(C)C(=O)CCCN(CCC(c1ccccc1)c1ccccc1)C(=O)Nc1nc2ccccc2s1` [Example 89, 3-(benzo[d]thiazol-2-yl)-1-(4-(dimethylamino)-4-oxobutyl)-1-(3,3-diphenylpropyl)urea]: less than 100 nM.
